Earlier results in patent US11633409B2, “Solid preparation comprising dutasteride and method for preparing same” (JW PHARMACEUTICAL CORPORATION, priority 2017, dated 2023).
Like-named read-outs stand apart in the source and are kept apart here.

Tests used:
[1] = not given; remark: listed apart in the source

solubility in water: insoluble in water
equilibrium solubility ([1]; in Capmul MCM NF): 2.75 g/100 g
equilibrium solubility ([1]; in PEG 400): 0.39 g/100 g
equilibrium solubility ([1]; in Transcutol): 2.41 g/100 g
equilibrium solubility ([1]; in ethanol): 4.40 g/100 g
equilibrium solubility ([1]; in isopropanol): 3.06 g/100 g
equilibrium solubility ([1]; in propylene glycol): 1.34 g/100 g
Structure (SMILES): C[C@]12C=CC(=O)NC1CCC1C2CC[C@@]2(C)C1CC[C@@H]2C(=O)Nc1cc(C(F)(F)F)ccc1C(F)(F)F (stereo partly shown) [dutasteride, Dutasteride]
